The values below are quoted from earlier work in patent publication US11865207B2, “Topical pharmaceutical composition for treatment of anal fissures and hemorrhoids” (Ferring B.V., priority 2018, dated 2024).

The data set has as its system anal fissures. Particulars: 2% topical diltiazem in an ointment.

Regarding `COc1ccc([C@@H]2Sc3ccccc3N(CCN(C)C)C(=O)[C@@H]2OC(C)=O)cc1` [diltiazem], the healing rate is 75%.
